From PubChem BioAssay AID248 (DTP/NCI, 2004)
Where “and” joins values, the source holds several entries; their conditions need not be identical. Equal entries are not always repeated. Toxic doses and inconclusive results are not listed. Rule as the data show it: active = T/C of 150% or more; inactive = T/C below 125%.

System: L1210 leukemia ip in BDF1 mice, survival T/C
Experiment: NCI In Vivo Anticancer Drug Screen. Data for tumor model L1210 Leukemia (intraperitoneal) in B6D2F1 (BDF1) mice
Settings: endpoint: mean survival time, higher = longer survival
Outline: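 Value reflects the ratio of survival in compound-treated mice to survival in vehicle-treated controls, with both groups carrying the same transplanted tumor.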

Measured: T/C

Nc1ccc(OC(=O)Oc2ccc(N)cc2)cc1
inactive: dose: 5.0 mg/kg/injection, schedule: Q01DX Z (iv), vehicle: saline 101 % of control | dose: 6.25 mg/kg/injection, schedule: Q#A X Z (oral), vehicle: saline 106 % of control | dose: 10.0 mg/kg/injection, schedule: Q01DX Z (iv), vehicle: saline 101 % of control | dose: 12.5 mg/kg/injection, schedule: Q01DX Z (oral), vehicle: saline 104 % of control | dose: 12.5 mg/kg/injection, schedule: Q#A X Z (oral), vehicle: saline 108 % of control | dose: 16.0 mg/kg/injection, schedule: Q07DX003 (oral), vehicle: saline 103 % of control | dose: 20.0 mg/kg/injection, schedule: Q01DX Z (iv), vehicle: saline 100 % of control | dose: 25.0 mg/kg/injection, schedule: Q01DX Z (oral), vehicle: saline 104 % of control | dose: 25.0 mg/kg/injection, schedule: Q#A X Z (oral), vehicle: saline 112 % of control | dose: 31.0 mg/kg/injection, schedule: Q07DX003 (oral), vehicle: saline 98 % of control | dose: 37.0 mg/kg/injection, schedule: Q01DX Z (ip), vehicle: carboxymethylcellulose (CMC) 100 % of control | dose: 37.5 mg/kg/injection, schedule: Q01DX009 (ip), vehicle: other 101 % of control | dose: 37.5 mg/kg/injection, schedule: Q01DX017 (ip), vehicle: other 101 % of control | dose: 37.5 mg/kg/injection, schedule: Q#A X018 (ip), vehicle: other 97 % of control | dose: 38.0 mg/kg/injection, schedule: Q01DX Z (ip), vehicle: carboxymethylcellulose (CMC) 98 % of control | dose: 40.0 mg/kg/injection, schedule: Q01DX Z (iv), vehicle: saline 100 % of control | dose: 40.0 mg/kg/injection, schedule: Q#A X Z (ip), vehicle: saline 111 % of control | dose: 50.0 mg/kg/injection, schedule: Q01DX005 (ip), vehicle: saline 101 % of control | dose: 50.0 mg/kg/injection, schedule: Q01DX006 (iv), vehicle: saline 110 % of control | dose: 50.0 mg/kg/injection, schedule: Q01DX009 (ip), vehicle: saline 104 % of control | dose: 50.0 mg/kg/injection, schedule: Q01DX015 (ip), vehicle: other 115 % of control | dose: 50.0 mg/kg/injection, schedule: Q01DX Z (im), vehicle: saline 104 % of control | dose: 50.0 mg/kg/injection, schedule: Q01DX Z (oral), vehicle: saline 112 % of control | dose: 50.0 mg/kg/injection, schedule: Q01DX Z (sc), vehicle: saline 112 % of control | dose: 50.0 mg/kg/injection, schedule: Q## X003 (ip), vehicle: saline 102 % of control | dose: 50.0 mg/kg/injection, schedule: Q## X024 (ip), vehicle: saline 101 % of control | dose: 53.0 mg/kg/injection, schedule: Q01DX Z (ip), vehicle: carboxymethylcellulose (CMC) 89 % of control and 113 % of control | dose: 53.0 mg/kg/injection, schedule: Q01DX Z (ip), vehicle: saline 102 % of control | dose: 63.0 mg/kg/injection, schedule: Q07DX003 (oral), vehicle: saline 106 % of control | dose: 74.0 mg/kg/injection, schedule: Q01DX Z (ip), vehicle: carboxymethylcellulose (CMC) 113 % of control | dose: 75.0 mg/kg/injection, schedule: Q01DX009 (ip), vehicle: other 104 % of control | dose: 75.0 mg/kg/injection, schedule: Q01DX017 (ip), vehicle: other 104 % of control | dose: 75.0 mg/kg/injection, schedule: Q01DX Z (ip), vehicle: carboxymethylcellulose (CMC) 102 % of control | dose: 75.0 mg/kg/injection, schedule: Q#A X018 (ip), vehicle: other 118 % of control | dose: 80.0 mg/kg/injection, schedule: Q01DX012 (oral), vehicle: saline 94 % of control | dose: 80.0 mg/kg/injection, schedule: Q01DX Z (ip), vehicle: carboxymethylcellulose (CMC) 93 % of control | dose: 80.0 mg/kg/injection, schedule: Q01DX Z (ip), vehicle: saline 113 % of control | dose: 100.0 mg/kg/injection, schedule: Q01DX001 (ip), vehicle: saline 98 % of control | dose: 100.0 mg/kg/injection, schedule: Q01DX005 (ip), vehicle: saline 92 % of control | dose: 100.0 mg/kg/injection, schedule: Q01DX005 (oral), vehicle: saline 116 % of control | dose: 100.0 mg/kg/injection, schedule: Q01DX006 (iv), vehicle: saline 114 % of control | dose: 100.0 mg/kg/injection, schedule: Q01DX009 (oral), vehicle: saline 116 % of control | dose: 100.0 mg/kg/injection, schedule: Q01DX015 (ip), vehicle: clinical formulation 118 % of control | dose: 100.0 mg/kg/injection, schedule: Q## X003 (ip), vehicle: saline 106 % of control | dose: 100.0 mg/kg/injection, schedule: Q## X003 (oral), vehicle: saline 101 % of control | dose: 100.0 mg/kg/injection, schedule: Q## X008 (ip), vehicle: saline 101 % of control | dose: 120.0 mg/kg/injection, schedule: Q01DX012 (oral), vehicle: saline 105 % of control | dose: 120.0 mg/kg/injection, schedule: Q01DX Z (ip), vehicle: carboxymethylcellulose (CMC) 97 % of control | dose: 120.0 mg/kg/injection, schedule: Q01DX Z (ip), vehicle: saline 108 % of control and 117 % of control | dose: 125.0 mg/kg/injection, schedule: Q07DX003 (oral), vehicle: saline 106 % of control | dose: 135.0 mg/kg/injection, schedule: Q#A X Z (ip), vehicle: saline 102 % of control | dose: 149.0 mg/kg/injection, schedule: Q01DX Z (ip), vehicle: carboxymethylcellulose (CMC) 105 % of control | dose: 150.0 mg/kg/injection, schedule: Q01DX001 (ip), vehicle: other 109 % of control | dose: 150.0 mg/kg/injection, schedule: Q01DX Z (ip), vehicle: carboxymethylcellulose (CMC) 113 % of control | dose: 180.0 mg/kg/injection, schedule: Q01DX Z (ip), vehicle: carboxymethylcellulose (CMC) 98 % of control | dose: 180.0 mg/kg/injection, schedule: Q01DX Z (ip), vehicle: saline 105 % of control | dose: 180.0 mg/kg/injection, schedule: Q01DX Z (oral), vehicle: saline 110 % of control | dose: 200.0 mg/kg/injection, schedule: Q01DX001 (ip), vehicle: saline 110 % of control | dose: 200.0 mg/kg/injection, schedule: Q01DX005 (oral), vehicle: saline 110 % of control | dose: 200.0 mg/kg/injection, schedule: Q01DX008 (oral), vehicle: saline 93 % of control | dose: 200.0 mg/kg/injection, schedule: Q01DX015 (ip), vehicle: clinical formulation 108 % of control | dose: 200.0 mg/kg/injection, schedule: Q01DX015 (ip), vehicle: other 100 % of control | dose: 200.0 mg/kg/injection, schedule: Q## X003 (ip), vehicle: saline 98 % of control | dose: 200.0 mg/kg/injection, schedule: Q## X003 (oral), vehicle: saline 106 % of control | dose: 200.0 mg/kg/injection, schedule: Q## X008 (ip), vehicle: saline 104 % of control | dose: 200.0 mg/kg/injection, schedule: Q## X024 (ip), vehicle: saline 97 % of control | dose: 240.0 mg/kg/injection, schedule: Q03DX Z (ip), vehicle: saline 110 % of control | dose: 250.0 mg/kg/injection, schedule: Q01DX001 (oral), vehicle: saline 115 % of control | dose: 250.0 mg/kg/injection, schedule: Q03DX006 (oral), vehicle: saline 108 % of control | dose: 250.0 mg/kg/injection, schedule: Q07DX003 (oral), vehicle: saline 113 % of control | dose: 267.0 mg/kg/injection, schedule: Q## X024 (ip), vehicle: saline 106 % of control | dose: 267.0 mg/kg/injection, schedule: Q## X024 (oral), vehicle: saline 110 % of control | dose: 270.0 mg/kg/injection, schedule: Q01DX Z (ip), vehicle: carboxymethylcellulose (CMC) 101 % of control | dose: 270.0 mg/kg/injection, schedule: Q01DX Z (ip), vehicle: other 113 % of control | dose: 270.0 mg/kg/injection, schedule: Q01DX Z (ip), vehicle: saline 91 % of control | dose: 300.0 mg/kg/injection, schedule: Q01DX001 (ip), vehicle: other 103 % of control | dose: 360.0 mg/kg/injection, schedule: Q03DX Z (ip), vehicle: saline 110 % of control | dose: 400.0 mg/kg/injection, schedule: Q01DX001 (ip), vehicle: saline 97 % of control | dose: 400.0 mg/kg/injection, schedule: Q01DX006 (iv), vehicle: saline 118 % of control | dose: 400.0 mg/kg/injection, schedule: Q01DX008 (oral), vehicle: saline 92 % of control | dose: 400.0 mg/kg/injection, schedule: Q## X003 (ip), vehicle: saline 111 % of control | dose: 400.0 mg/kg/injection, schedule: Q## X003 (oral), vehicle: saline 105 % of control | dose: 400.0 mg/kg/injection, schedule: Q## X008 (ip), vehicle: saline 101 % of control | dose: 400.0 mg/kg/injection, schedule: Q## X024 (oral), vehicle: saline 102 % of control and 105 % of control | dose: 405.0 mg/kg/injection, schedule: Q01DX Z (ip), vehicle: other 116 % of control | dose: 500.0 mg/kg/injection, schedule: Q01DX001 (oral), vehicle: saline 110 % of control | dose: 500.0 mg/kg/injection, schedule: Q03DX006 (oral), vehicle: saline 115 % of control | dose: 500.0 mg/kg/injection, schedule: Q07DX003 (oral), vehicle: saline 111 % of control | dose: 540.0 mg/kg/injection, schedule: Q03DX Z (ip), vehicle: saline 115 % of control | dose: 560.0 mg/kg/injection, schedule: Q07DX Z (ip), vehicle: saline 110 % of control | dose: 600.0 mg/kg/injection, schedule: Q## X024 (oral), vehicle: saline 115 % of control | dose: 720.0 mg/kg/injection, schedule: Q01DX Z (oral), vehicle: saline 106 % of control | dose: 800.0 mg/kg/injection, schedule: Q01DX008 (oral), vehicle: saline 116 % of control | dose: 800.0 mg/kg/injection, schedule: Q## X003 (oral), vehicle: saline 102 % of control | dose: 1000.0 mg/kg/injection, schedule: Q01DX001 (oral), vehicle: saline 110 % of control | dose: 1000.0 mg/kg/injection, schedule: Q03DX006 (oral), vehicle: saline 114 % of control | dose: 2000.0 mg/kg/injection, schedule: Q01DX001 (oral), vehicle: saline 92 % of control
